In PubChem BioAssay AID2060491 (Molecular Pharmacology Branch, DTP, NCI, 2025):

System: 857933-349-R-J2-PDC complex spheroids, viability
Assay: Anticancer human tumor 857933-349-R-J2-PDC patient-derived colon adenocarcinoma cell line growth inhibition [GQUAD]
Details: for IC50: curve of first compound; for viability, T/C: stronger effect = lower value; active = viability on the fitted dose curve at most 10% of control; inactive = the rest
Summary of the method: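 Viability of tumor cells grown as complex spheroids with endothelial and stromal cells, exposed to drug combinations. Top concentration at or near clinical Cmax (else 10 microM), diluted in half-log increments.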

[1] = second compound 0.0316 µM, first compound 0.0316 µM
[2] = second compound 0.0316 µM, first compound 0.1 µM
[3] = second compound 0.0316 µM, first compound 0.316 µM
[4] = second compound 0.0316 µM, first compound 1 µM
[5] = second compound 0.0316 µM, first compound 3.16 µM
[6] = second compound 0.0316 µM, first compound 10 µM
[7] = second compound 0.1 µM, first compound 0.0316 µM
[8] = second compound 0.1 µM, first compound 0.1 µM
[9] = second compound 0.1 µM, first compound 0.316 µM
[10] = second compound 0.1 µM, first compound 1 µM
[11] = second compound 0.1 µM, first compound 3.16 µM
[12] = second compound 0.1 µM, first compound 10 µM
[13] = second compound 0.316 µM, first compound 0.0316 µM
[14] = second compound 0.316 µM, first compound 0.1 µM
[15] = second compound 0.316 µM, first compound 0.316 µM
[16] = second compound 0.316 µM, first compound 1 µM
[17] = second compound 0.316 µM, first compound 3.16 µM
[18] = second compound 0.316 µM, first compound 10 µM
[19] = second compound 1 µM, first compound 0.0316 µM
[20] = second compound 1 µM, first compound 0.1 µM
[21] = second compound 1 µM, first compound 0.316 µM
[22] = second compound 1 µM, first compound 1 µM
[23] = second compound 1 µM, first compound 3.16 µM
[24] = second compound 1 µM, first compound 10 µM
[25] = second compound 3.16 µM, first compound 0.0316 µM
[26] = second compound 3.16 µM, first compound 0.1 µM
[27] = second compound 3.16 µM, first compound 0.316 µM
[28] = second compound 3.16 µM, first compound 1 µM
[29] = second compound 3.16 µM, first compound 3.16 µM
[30] = second compound 3.16 µM, first compound 10 µM
[31] = second compound 10 µM, first compound 0.0316 µM
[32] = second compound 10 µM, first compound 0.1 µM
[33] = second compound 10 µM, first compound 0.316 µM
[34] = second compound 10 µM, first compound 1 µM
[35] = second compound 10 µM, first compound 3.16 µM
[36] = second compound 10 µM, first compound 10 µM
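Also: spheroids exposed to compounds for one week before readout.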
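For viability, T/C in this document: percent viability relative to vehicle DMSO wells taken as 100%.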

COc1cccc2c1C(=O)c1c(O)c3c(c(O)c1C2=O)CC(O)(C(=O)CO)CC3OC1CC(N)C(O)C(C)O1 (stereo not given) + Cc1[nH]c2ccc(F)cc2c1-c1nc2c3cccnc3c3ncccc3c2[nH]1
444 nM: IC50 (second compound 0.0316 µM)
inactive: viability, T/C [1] 90.5% | viability, T/C [2] 66% | viability, T/C [3] 59.2% | viability, T/C [4] 41.6% | viability, T/C [5] 5.07% | viability, T/C [7] 81.5% | viability, T/C [8] 63.5% | viability, T/C [9] 59.7% | viability, T/C [10] 49.2% | viability, T/C [11] 7.76% | viability, T/C [13] 74.2% | viability, T/C [14] 66.8% | viability, T/C [15] 56.4% | viability, T/C [16] 51% | viability, T/C [19] 79.9% | viability, T/C [20] 62.5% | viability, T/C [21] 61.9% | viability, T/C [22] 48.6% | viability, T/C [25] 79.4% | viability, T/C [26] 65.7% | viability, T/C [27] 59.4% | viability, T/C [28] 43.6% | viability, T/C [29] 6.19% | viability, T/C [31] 93% | viability, T/C [32] 74.5% | viability, T/C [33] 58.5% | viability, T/C [34] 43.7% | viability, T/C [35] 5.74%
505 nM: IC50 (second compound 10 µM)
721 nM: IC50 (second compound 0.1 µM)
965 nM: IC50 (second compound 0.316 µM)
active: viability, T/C [6] 0.26% | viability, T/C [12] 0.17% | viability, T/C [17] 5.84% | viability, T/C [18] 0.2% | viability, T/C [23] 5.97% | viability, T/C [24] 0.21% | viability, T/C [30] 0.26% | viability, T/C [36] 0.29%
572 nM: IC50 (second compound 3.16 µM)
839 nM: IC50 (second compound 1 µM)

C#Cc1c(F)ccc2cc(O)cc(-c3ncc4c(N5CC6CCC(C5)N6)nc(OCC56CCCN5CC(F)C6)nc4c3F)c12 (stereo not given) + Cc1cnc(CNC(=O)c2c(=O)c3ccc(N4CCCN(C)CC4)nc3n3c2sc2ccccc23)cn1
< 31.6 nM: IC50 (second compound 0.316 µM) | IC50 (second compound 1 µM) | IC50 (second compound 3.16 µM) | IC50 (second compound 10 µM)
> 10000 nM: IC50 (second compound 0.0316 µM) | IC50 (second compound 0.1 µM)
active: viability, T/C [19] 3.9% | viability, T/C [20] 5% | viability, T/C [21] 2.72% | viability, T/C [22] 2.84% | viability, T/C [23] 3.14% | viability, T/C [24] 1.95% | viability, T/C [25] 2.08% | viability, T/C [26] 2.35% | viability, T/C [27] 1.86% | viability, T/C [28] 1.3% | viability, T/C [29] 1.63% | viability, T/C [30] 0.57% | viability, T/C [31] 0.16% | viability, T/C [32] 0.2% | viability, T/C [33] 0.25% | viability, T/C [34] 0.19% | viability, T/C [35] 0.24% | viability, T/C [36] 0.21%
inactive: viability, T/C [1] 101% | viability, T/C [2] 81.6% | viability, T/C [3] 72.6% | viability, T/C [4] 64.5% | viability, T/C [5] 76.5% | viability, T/C [6] 63.5% | viability, T/C [7] 59% | viability, T/C [8] 64.7% | viability, T/C [9] 54.6% | viability, T/C [10] 61.5% | viability, T/C [11] 68.3% | viability, T/C [12] 64.3% | viability, T/C [13] 23.7% | viability, T/C [14] 24.6% | viability, T/C [15] 22.4% | viability, T/C [16] 19.5% | viability, T/C [17] 22.6% | viability, T/C [18] 25.7%

Cc1cccc(N(C)C(=O)C2C(O)CCN2c2nc(C)cc(C(F)(F)F)c2C#N)c1 (stereo not given) + Cc1cnc(CNC(=O)c2c(=O)c3ccc(N4CCCN(C)CC4)nc3n3c2sc2ccccc23)cn1
< 31.6 nM: IC50 (second compound 0.316 µM) | IC50 (second compound 1 µM) | IC50 (second compound 3.16 µM) | IC50 (second compound 10 µM)
active: viability, T/C [19] 4.6% | viability, T/C [20] 7.14% | viability, T/C [21] 5.51% | viability, T/C [22] 4.02% | viability, T/C [23] 4.11% | viability, T/C [24] 3.8% | viability, T/C [25] 2.72% | viability, T/C [26] 2.17% | viability, T/C [27] 1.95% | viability, T/C [28] 2.02% | viability, T/C [29] 2.19% | viability, T/C [30] 1.89% | viability, T/C [31] 2.6% | viability, T/C [32] 2.28% | viability, T/C [33] 2.23% | viability, T/C [34] 1.9% | viability, T/C [35] 1.89% | viability, T/C [36] 0.69%
> 10000 nM: IC50 (second compound 0.0316 µM) | IC50 (second compound 0.1 µM)
inactive: viability, T/C [1] 92% | viability, T/C [2] 88.2% | viability, T/C [3] 94.4% | viability, T/C [4] 82.3% | viability, T/C [5] 95.1% | viability, T/C [6] 77.6% | viability, T/C [7] 70.8% | viability, T/C [8] 73.3% | viability, T/C [9] 62.9% | viability, T/C [10] 58.8% | viability, T/C [11] 74.5% | viability, T/C [12] 64.1% | viability, T/C [13] 24.6% | viability, T/C [14] 29.8% | viability, T/C [15] 27.1% | viability, T/C [16] 23.4% | viability, T/C [17] 24.2% | viability, T/C [18] 22.7%

CCCS(=O)(=O)Nc1ccc(F)c(C(=O)c2c[nH]c3ncc(-c4ccc(Cl)cc4)cc23)c1F + CN(C)c1ccc(Nc2c3ccc(NC(=O)CCN4CCCC4)cc3nc3cc(NC(=O)CCN4CCCC4)ccc23)cc1
5450 nM: IC50 (second compound 1 µM)
active: viability, T/C [6] 5.26% | viability, T/C [12] 5.04% | viability, T/C [18] 5.41% | viability, T/C [24] 5.58% | viability, T/C [30] 7.65%
3180 nM: IC50 (second compound 10 µM)
5530 nM: IC50 (second compound 0.1 µM)
5030 nM: IC50 (second compound 3.16 µM)
5650 nM: IC50 (second compound 0.0316 µM) | IC50 (second compound 0.316 µM)
inactive: viability, T/C [1] 108% | viability, T/C [2] 101% | viability, T/C [3] 102% | viability, T/C [4] 96.8% | viability, T/C [5] 95.5% | viability, T/C [7] 110% | viability, T/C [8] 106% | viability, T/C [9] 96.4% | viability, T/C [10] 106% | viability, T/C [11] 92.5% | viability, T/C [13] 104% | viability, T/C [14] 101% | viability, T/C [15] 96.5% | viability, T/C [16] 96.7% | viability, T/C [17] 95.3% | viability, T/C [19] 101% | viability, T/C [20] 89.6% | viability, T/C [21] 96.7% | viability, T/C [22] 93.1% | viability, T/C [23] 89.9% | viability, T/C [25] 83.5% | viability, T/C [26] 73.5% | viability, T/C [27] 81.2% | viability, T/C [28] 75.8% | viability, T/C [29] 79.7% | viability, T/C [31] 63.1% | viability, T/C [32] 66.5% | viability, T/C [33] 56.8% | viability, T/C [34] 59.1% | viability, T/C [35] 51% | viability, T/C [36] 12.3%

CC1COCCN1c1cc(C2(S(C)(=N)=O)CC2)nc(-c2ccnc3[nH]ccc23)n1 (stereo not given) + Cc1cnc(CNC(=O)c2c(=O)c3ccc(N4CCCN(C)CC4)nc3n3c2sc2ccccc23)cn1
< 31.6 nM: IC50 (second compound 0.316 µM) | IC50 (second compound 1 µM) | IC50 (second compound 3.16 µM) | IC50 (second compound 10 µM)
inactive: viability, T/C [1] 82% | viability, T/C [2] 75.7% | viability, T/C [3] 72.3% | viability, T/C [4] 43.8% | viability, T/C [5] 42.1% | viability, T/C [6] 31.9% | viability, T/C [7] 56.5% | viability, T/C [8] 68.6% | viability, T/C [9] 45.8% | viability, T/C [10] 39.1% | viability, T/C [11] 34.4% | viability, T/C [12] 26.7% | viability, T/C [13] 26.8% | viability, T/C [14] 31.2% | viability, T/C [15] 20.8% | viability, T/C [16] 13.4% | viability, T/C [17] 10.6%
800 nM: IC50 (second compound 0.0316 µM)
active: viability, T/C [18] 10% | viability, T/C [19] 5.52% | viability, T/C [20] 6.04% | viability, T/C [21] 4.55% | viability, T/C [22] 3.48% | viability, T/C [23] 3.6% | viability, T/C [24] 4.17% | viability, T/C [25] 2.4% | viability, T/C [26] 2.9% | viability, T/C [27] 2.49% | viability, T/C [28] 1.88% | viability, T/C [29] 1.99% | viability, T/C [30] 2.82% | viability, T/C [31] 1.11% | viability, T/C [32] 1.51% | viability, T/C [33] 1.22% | viability, T/C [34] 1.75% | viability, T/C [35] 1.64% | viability, T/C [36] 2.19%
327 nM: IC50 (second compound 0.1 µM)
